# Assays:
# setaria glauca L. = assay: herbicidal activity, soil treatment one day after sowing; type: in vivo
# [1] = tested on: phaseolus vulgaris (bean); assay: activity on agrarian species, soil treatment one day after sowing; type: in vivo, Phaseolus vulgaris L.
# Outline: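 Activity on bean was rated from 0 (no difference from control) to 4 (germination prevented or plants fully contained at emergence), with both classes noted for intermediate effects. Soil treatment one day after sowing, at rates of 1, 3, 6, 8, 10, 12 and 14 kg/ha.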
# [2] = tested on: Panichum Dichotomi florum M.; assay: herbicidal activity of PA 106 against infesting herbs; type: in vivo
# Text: (§1) Method of evaluation of the results (of tests):
# (§2) 0 = no activity and no difference with respect to the control;
# (§3) 1 slight differences with respect to the control;
# (§4) 3 = considerable activity with damages that definitely impair the further development of most of the small plants; an activity degree already useful for practical purposes;
# (§5) 4 = maximum of activity with lack of germination or total containment of the small plants in the emerging stage.
# (§6) In the case of an intermediate activity between two classes of the scale, both values are recorded with the one which corresponds to the preeminent activity preceding.
# (§7) TABLE 3 reports data on the herbicidal activity against infesting herbs, while TABLE 4 reports data concerning the activity on useful species of agricultural cultivations. These tables employ the criterion explained previously. The product was spread on the soil one day after sowing, in quantities of 1, 3, 6, 8, 10, 12 and 14 kg/ha.
# Digitaria sanguinalis L. = assay: as above; type: in vivo
# Text: as §1, §2, §3, §4, §5, §6, §7
# Papmer rhoeas L. = assay: as above; type: in vivo
# Text: as §1, §2, §3, §4, §5, §6, §7
# Sorghum sp. = assay: as above; type: in vivo
# Text: as §1, §2, §3, §4, §5, §6, §7
# Portulaca oleracea L. = assay: as above; type: in vivo
# Text: as §1, §2, §3, §4, §5, §6, §7
# [3] = tested on: echinocloa crus-galli R.S.; assay: herbicidal activity, soil treatment one day after sowing; type: in vivo
# oryza sativa L. (rice) = assay: activity on agrarian species, soil treatment one day after sowing; type: in vivo
# Outline: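 Activity scored 0 (no difference from control) to 4 (no germination or total containment of emerging plants), intermediates given both classes. Product spread on soil one day after sowing rice, at rates of 1, 3, 6, 8, 10, 12 and 14 kg/ha.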
# avena sativa (oats) = assay: as above; type: in vivo, Avena sativa L.
# pisum sativum L. (pea) = assay: as above; type: in vivo
smiles,measurement,setting,value
"CCC(C)N(C(=O)c1ccc(Cl)c(Cl)c1)C(C)CC (centres unmarked) [PA106, 3,4-dichloro-N,N-di-sec.butyl-benzamide]","herbicidal activity, Table 3",setaria glauca L.; 1 kg/ha,2/3
same,"herbicidal activity, Table 3",setaria glauca L.; 3 kg/ha,3
same,"activity on E, 0-4 scale",setaria glauca L.; 4 kg/ha,3-4
same,"activity on E, 0-4 scale",setaria glauca L.; 6 kg/ha,4
same,"herbicidal activity, Table 3",setaria glauca L.; 6 kg/ha,4
same,"herbicidal activity, Table 3",setaria glauca L.; 8 kg/ha,4
same,"herbicidal activity, Table 3",setaria glauca L.; 10 kg/ha,4
same,"herbicidal activity, Table 3",setaria glauca L.; 12 kg/ha,4
same,"herbicidal activity, Table 3",setaria glauca L.; 14 kg/ha,4
same,"activity on useful species, Table 4",[1]; 1 kg/ha,0
same,"activity on useful species, Table 4",[1]; 3 kg/ha,0
same,"activity on I, 0-4 scale",[1]; 6 kg/ha,0
same,"activity on useful species, Table 4",[1]; 6 kg/ha,0
same,"activity on useful species, Table 4",[1]; 8 kg/ha,0
same,"activity on useful species, Table 4",[1]; 10 kg/ha,0
same,"activity on useful species, Table 4",[1]; 12 kg/ha,0/1
same,"activity on useful species, Table 4",[1]; 14 kg/ha,0/1
same,"herbicidal activity, Table 3",[2]; 1 kg/ha,2
same,"herbicidal activity, Table 3",[2]; 3 kg/ha,5/4
same,"herbicidal activity, Table 3",[2]; 6 kg/ha,4
same,"herbicidal activity, Table 3",[2]; 8 kg/ha,4
same,"herbicidal activity, Table 3",[2]; 10 kg/ha,4
same,"herbicidal activity, Table 3",[2]; 12 kg/ha,4
same,"herbicidal activity, Table 3",[2]; 14 kg/ha,4
same,"herbicidal activity, Table 3",Digitaria sanguinalis L.; 1 kg/ha,2/3
same,"herbicidal activity, Table 3",Digitaria sanguinalis L.; 3 kg/ha,4/3
same,"herbicidal activity, Table 3",Digitaria sanguinalis L.; 6 kg/ha,4
same,"herbicidal activity, Table 3",Digitaria sanguinalis L.; 8 kg/ha,4
same,"herbicidal activity, Table 3",Digitaria sanguinalis L.; 10 kg/ha,4
same,"herbicidal activity, Table 3",Digitaria sanguinalis L.; 12 kg/ha,4
same,"herbicidal activity, Table 3",Digitaria sanguinalis L.; 14 kg/ha,4
same,"herbicidal activity, Table 3",Papmer rhoeas L.; 1 kg/ha,0
same,"herbicidal activity, Table 3",Papmer rhoeas L.; 3 kg/ha,1
same,"herbicidal activity, Table 3",Papmer rhoeas L.; 6 kg/ha,2
same,"herbicidal activity, Table 3",Papmer rhoeas L.; 8 kg/ha,3
same,"herbicidal activity, Table 3",Papmer rhoeas L.; 10 kg/ha,4
same,"herbicidal activity, Table 3",Papmer rhoeas L.; 12 kg/ha,4
same,"herbicidal activity, Table 3",Papmer rhoeas L.; 14 kg/ha,4
same,"herbicidal activity, Table 3",Sorghum sp.; 1 kg/ha,1
same,"herbicidal activity, Table 3",Sorghum sp.; 3 kg/ha,3
same,"herbicidal activity, Table 3",Sorghum sp.; 6 kg/ha,4
same,"herbicidal activity, Table 3",Sorghum sp.; 8 kg/ha,4
same,"herbicidal activity, Table 3",Sorghum sp.; 10 kg/ha,4
same,"herbicidal activity, Table 3",Sorghum sp.; 12 kg/ha,4
same,"herbicidal activity, Table 3",Sorghum sp.; 14 kg/ha,4
same,"herbicidal activity, Table 3",Portulaca oleracea L.; 1 kg/ha,0
same,"herbicidal activity, Table 3",Portulaca oleracea L.; 3 kg/ha,1/2
same,"herbicidal activity, Table 3",Portulaca oleracea L.; 6 kg/ha,3
same,"herbicidal activity, Table 3",Portulaca oleracea L.; 8 kg/ha,3/4
same,"herbicidal activity, Table 3",Portulaca oleracea L.; 10 kg/ha,4
same,"herbicidal activity, Table 3",Portulaca oleracea L.; 12 kg/ha,4
same,"herbicidal activity, Table 3",Portulaca oleracea L.; 14 kg/ha,4
same,"herbicidal activity, Table 3",[3]; 1 kg/ha,0/1
same,"activity on D, 0-4 scale",[3]; 2 kg/ha,2
same,"herbicidal activity, Table 3",[3]; 3 kg/ha,3
same,"activity on D, 0-4 scale",[3]; 4 kg/ha,3-4
same,"activity on D, 0-4 scale",[3]; 6 kg/ha,4
same,"herbicidal activity, Table 3",[3]; 6 kg/ha,4
same,"herbicidal activity, Table 3",[3]; 8 kg/ha,4
same,"herbicidal activity, Table 3",[3]; 10 kg/ha,4
same,"herbicidal activity, Table 3",[3]; 12 kg/ha,4
same,"herbicidal activity, Table 3",[3]; 14 kg/ha,4
same,"activity on useful species, Table 4",oryza sativa L. (rice); 1 kg/ha,0
same,"activity on useful species, Table 4",oryza sativa L. (rice); 3 kg/ha,0
same,"activity on P, 0-4 scale",oryza sativa L. (rice); 6 kg/ha,0
same,"activity on useful species, Table 4",oryza sativa L. (rice); 6 kg/ha,0
same,"activity on useful species, Table 4",oryza sativa L. (rice); 8 kg/ha,0
same,"activity on useful species, Table 4",oryza sativa L. (rice); 10 kg/ha,0
same,"activity on useful species, Table 4",oryza sativa L. (rice); 12 kg/ha,0
same,"activity on useful species, Table 4",oryza sativa L. (rice); 14 kg/ha,0/1
same,"activity on useful species, Table 4",avena sativa (oats); 1 kg/ha,0
same,"activity on useful species, Table 4",avena sativa (oats); 3 kg/ha,0
same,"activity on G, 0-4 scale",avena sativa (oats); 6 kg/ha,0
same,"activity on useful species, Table 4",avena sativa (oats); 6 kg/ha,0
same,"activity on useful species, Table 4",avena sativa (oats); 8 kg/ha,0
same,"activity on useful species, Table 4",avena sativa (oats); 10 kg/ha,0/1
same,"activity on useful species, Table 4",avena sativa (oats); 12 kg/ha,0/1
same,"activity on useful species, Table 4",avena sativa (oats); 14 kg/ha,1
same,"activity on useful species, Table 4",pisum sativum L. (pea); 1 kg/ha,0
same,"activity on useful species, Table 4",pisum sativum L. (pea); 3 kg/ha,0
same,"activity on L, 0-4 scale",pisum sativum L. (pea); 6 kg/ha,0
same,"activity on useful species, Table 4",pisum sativum L. (pea); 6 kg/ha,0
same,"activity on useful species, Table 4",pisum sativum L. (pea); 8 kg/ha,0
same,"activity on useful species, Table 4",pisum sativum L. (pea); 10 kg/ha,0
same,"activity on useful species, Table 4",pisum sativum L. (pea); 12 kg/ha,0
same,"activity on useful species, Table 4",pisum sativum L. (pea); 14 kg/ha,0
